Results as given in PubChem BioAssay AID330 (DTP/NCI, 2004).
Toxic doses and inconclusive results are not listed. The calls were made as follows: active = survival T/C of 150% or more; inactive = T/C below 125% in these data.

Tested on: P388 leukemia ip, CD2F1 mice, survival T/C
Assay: NCI In Vivo Anticancer Drug Screen. Data for tumor model P388 Leukemia (intraperitoneal) in CD2F1 (CDF1) mice
Settings: endpoint: median survival time, higher = longer survival
How it was run: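 Mice carrying the transplanted tumor received test compound or vehicle. Survival was recorded in each group, and the value is the treated-group measurement divided by that of the vehicle-treated control group.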

[1] = dose: 50.0 mg/kg/injection, schedule: Q01DX009 (ip), vehicle: Klucel (hydroxypropylcellulose) (HPC)
[2] = dose: 100.0 mg/kg/injection, schedule: Q01DX009 (ip), vehicle: Klucel (hydroxypropylcellulose) (HPC)
[3] = dose: 50.0 mg/kg/injection, schedule: Q01DX009 (ip), vehicle: saline
[4] = dose: 100.0 mg/kg/injection, schedule: Q01DX009 (ip), vehicle: saline
[5] = dose: 200.0 mg/kg/injection, schedule: Q01DX009 (ip), vehicle: saline
[6] = dose: 6.25 mg/kg/injection, schedule: Q01DX005 (ip), vehicle: Klucel (hydroxypropylcellulose) (HPC)
[7] = dose: 12.5 mg/kg/injection, schedule: Q01DX005 (ip), vehicle: Klucel (hydroxypropylcellulose) (HPC)
[8] = dose: 25.0 mg/kg/injection, schedule: Q01DX005 (ip), vehicle: Klucel (hydroxypropylcellulose) (HPC)
[9] = dose: 100.0 mg/kg/injection, schedule: Q01DX009 (ip), vehicle: saline with Tween-80
[10] = dose: 200.0 mg/kg/injection, schedule: Q01DX009 (ip), vehicle: saline with Tween-80

Measured: T/C

OCC1OC(n2cnc3c(NO)ncnc32)CC1O (stereo not drawn)
inactive: dose: 12.5 mg/kg/injection, schedule: Q01DX009 (ip), vehicle: Klucel (hydroxypropylcellulose) (HPC) 100 % of control | dose: 25.0 mg/kg/injection, schedule: Q01DX009 (ip), vehicle: Klucel (hydroxypropylcellulose) (HPC) 112 % of control | [1] 100 % of control | [2] 100 % of control

CC(=O)OCC1C(OC(C)=O)C(OC(C)=O)C(COC(C)=O)N1C(C)=O (stereo not drawn)
inactive: dose: 100.0 mg/kg/injection, schedule: Q04DX003 (ip), vehicle: Klucel (hydroxypropylcellulose) (HPC) 90 % of control | dose: 200.0 mg/kg/injection, schedule: Q04DX003 (ip), vehicle: Klucel (hydroxypropylcellulose) (HPC) 90 % of control | dose: 400.0 mg/kg/injection, schedule: Q04DX003 (ip), vehicle: Klucel (hydroxypropylcellulose) (HPC) 87 % of control

C=C1C(=O)OC2C1CCC(C)C1C=CC(=O)C12C (stereo not drawn)
inactive: dose: 25.0 mg/kg/injection, schedule: Q04DX002 (ip), vehicle: saline with Tween-80 115 % of control | dose: 50.0 mg/kg/injection, schedule: Q04DX002 (ip), vehicle: saline with Tween-80 114 % of control | dose: 100.0 mg/kg/injection, schedule: Q04DX002 (ip), vehicle: saline with Tween-80 119 % of control

CC1OC2COC(C)OC2C(C2CN2)O1 (stereo not drawn)
inactive: [3] 110 % of control | [4] 100 % of control | [5] 117 % of control

NS(=O)(=O)c1ccc(N=Nc2nc3[nH]c(=O)[nH]c(=O)c3[nH]2)cc1
inactive: [6] 106 % of control | [7] 102 % of control | [8] 107 % of control

CS1(C)=NC(=O)c2cc([N+](=O)[O-])ccc2N=1
inactive: dose: 60.0 mg/kg/injection, schedule: Q01DX005 (ip), vehicle: saline with Tween-80 94 % of control | dose: 120.0 mg/kg/injection, schedule: Q01DX005 (ip), vehicle: saline with Tween-80 94 % of control | dose: 240.0 mg/kg/injection, schedule: Q01DX005 (ip), vehicle: saline with Tween-80 92 % of control

O=C(CCl)C(c1ccc([N+](=O)[O-])cc1)c1ccc([N+](=O)[O-])cc1
inactive: [9] 100 % of control | [10] 95 % of control | dose: 400.0 mg/kg/injection, schedule: Q01DX009 (ip), vehicle: saline with Tween-80 118 % of control

CSC(=C(C#N)C#N)N1CC1
inactive: dose: 12.5 mg/kg/injection, schedule: Q01DX001 (ip), vehicle: DMSO 103 % of control | dose: 25.0 mg/kg/injection, schedule: Q01DX001 (ip), vehicle: DMSO 97 % of control | dose: 50.0 mg/kg/injection, schedule: Q01DX001 (ip), vehicle: DMSO 96 % of control

CCN1C(=O)c2ccccc2C1=O
inactive: [3] 101 % of control | [4] 90 % of control | [5] 110 % of control

C=C(C1=CC(=O)C(C)=C(OC(=O)C2(C)OC2C)C1=O)C(CC=C(C)C)OC(=O)/C(C)=C/C (stereo not drawn)
inactive: dose: 1.56 mg/kg/injection, schedule: Q01DX005 (ip), vehicle: Klucel (hydroxypropylcellulose) (HPC) 97 % of control | dose: 3.12 mg/kg/injection, schedule: Q01DX005 (ip), vehicle: Klucel (hydroxypropylcellulose) (HPC) 97 % of control | [6] 99 % of control | [7] 99 % of control | [8] 99 % of control

Cc1nn(C(C)C(=O)N(C)C)c(Br)c1Br (stereo not drawn)
inactive: [1] 99 % of control | [2] 108 % of control | dose: 200.0 mg/kg/injection, schedule: Q01DX009 (ip), vehicle: Klucel (hydroxypropylcellulose) (HPC) 111 % of control

CC(C)(C)C(C)(C)c1ccc(OCCSCCOc2ccc(C(C)(C)C(C)(C)C)cc2)cc1
inactive: dose: 50.0 mg/kg/injection, schedule: Q01DX009 (ip), vehicle: saline with Tween-80 92 % of control | [9] 90 % of control | [10] 87 % of control

CCOC(=O)Cc1nnc(N)s1
inactive: dose: 50.0 mg/kg/injection, schedule: Q04DX003 (ip), vehicle: saline 94 % of control | dose: 100.0 mg/kg/injection, schedule: Q04DX003 (ip), vehicle: saline 95 % of control | dose: 200.0 mg/kg/injection, schedule: Q04DX003 (ip), vehicle: saline 110 % of control | dose: 400.0 mg/kg/injection, schedule: Q04DX003 (ip), vehicle: saline 104 % of control
